“And” between values parts separate entries of the source, which are not always exact repeats. Equal entries are not always repeated.
Key:
[1] = target: T1, Collagenase 3 (Homo sapiens, UniProt P45452); assay: In vitro inhibition of Matrix metalloprotease-13.
[2] = target: T2, Interstitial collagenase (Homo sapiens, UniProt P03956); assay: In vitro inhibition of Matrix metalloprotease-1.
T2 sequence (P03956 whole entry): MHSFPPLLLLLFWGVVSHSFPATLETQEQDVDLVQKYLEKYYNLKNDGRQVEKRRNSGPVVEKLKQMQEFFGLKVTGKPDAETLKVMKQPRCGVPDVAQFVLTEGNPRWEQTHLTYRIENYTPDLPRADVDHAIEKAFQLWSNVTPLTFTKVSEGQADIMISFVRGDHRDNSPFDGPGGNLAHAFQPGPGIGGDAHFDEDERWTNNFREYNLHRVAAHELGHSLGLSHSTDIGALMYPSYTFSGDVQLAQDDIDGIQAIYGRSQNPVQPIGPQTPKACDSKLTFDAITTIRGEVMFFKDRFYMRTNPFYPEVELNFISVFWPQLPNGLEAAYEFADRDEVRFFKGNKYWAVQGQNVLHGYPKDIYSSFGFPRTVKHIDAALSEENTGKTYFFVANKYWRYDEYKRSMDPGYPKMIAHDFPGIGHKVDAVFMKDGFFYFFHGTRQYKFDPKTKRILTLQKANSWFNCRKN

[3] = target: Matrix metalloproteinase-9 (Homo sapiens, UniProt P14780); assay: In vitro inhibition of Matrix metalloprotease-9.
[4] = target: T3, Disintegrin and metalloproteinase domain-containing protein 17 (Homo sapiens, UniProt P78536); assay: In vitro inhibition of TNF-alpha converting enzyme.
[5] = target: T2, Interstitial collagenase; assay: Inhibition of Matrix metalloprotease-1
[6] = target: T1, Collagenase 3
Description: Inhibition of Matrix metalloprotease-13

[7] = target: T3, Disintegrin and metalloproteinase domain-containing protein 17; assay: Inhibition of TNFalpha converting enzyme, TACE

Chain of Matrix metalloproteinase-9 (P14780 whole entry, the tested form may be a part): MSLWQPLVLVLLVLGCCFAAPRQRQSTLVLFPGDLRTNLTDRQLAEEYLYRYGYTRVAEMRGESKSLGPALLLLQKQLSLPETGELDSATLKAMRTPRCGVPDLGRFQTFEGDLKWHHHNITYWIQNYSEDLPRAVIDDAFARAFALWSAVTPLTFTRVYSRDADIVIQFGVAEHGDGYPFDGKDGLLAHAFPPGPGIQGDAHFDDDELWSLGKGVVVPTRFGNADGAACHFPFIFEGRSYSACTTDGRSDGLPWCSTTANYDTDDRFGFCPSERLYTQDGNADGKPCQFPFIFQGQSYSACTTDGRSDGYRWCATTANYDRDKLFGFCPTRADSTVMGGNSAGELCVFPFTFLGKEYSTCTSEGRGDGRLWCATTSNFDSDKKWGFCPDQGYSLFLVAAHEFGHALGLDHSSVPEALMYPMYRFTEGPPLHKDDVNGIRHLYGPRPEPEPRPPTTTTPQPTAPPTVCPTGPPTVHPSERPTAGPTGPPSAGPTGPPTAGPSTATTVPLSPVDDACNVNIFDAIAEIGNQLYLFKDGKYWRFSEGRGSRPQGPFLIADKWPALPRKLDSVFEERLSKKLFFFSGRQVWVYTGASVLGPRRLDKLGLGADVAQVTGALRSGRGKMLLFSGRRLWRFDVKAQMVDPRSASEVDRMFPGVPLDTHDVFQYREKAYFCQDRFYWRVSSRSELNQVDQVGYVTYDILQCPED
T3 sequence (P78536 whole entry, the tested form may be a part): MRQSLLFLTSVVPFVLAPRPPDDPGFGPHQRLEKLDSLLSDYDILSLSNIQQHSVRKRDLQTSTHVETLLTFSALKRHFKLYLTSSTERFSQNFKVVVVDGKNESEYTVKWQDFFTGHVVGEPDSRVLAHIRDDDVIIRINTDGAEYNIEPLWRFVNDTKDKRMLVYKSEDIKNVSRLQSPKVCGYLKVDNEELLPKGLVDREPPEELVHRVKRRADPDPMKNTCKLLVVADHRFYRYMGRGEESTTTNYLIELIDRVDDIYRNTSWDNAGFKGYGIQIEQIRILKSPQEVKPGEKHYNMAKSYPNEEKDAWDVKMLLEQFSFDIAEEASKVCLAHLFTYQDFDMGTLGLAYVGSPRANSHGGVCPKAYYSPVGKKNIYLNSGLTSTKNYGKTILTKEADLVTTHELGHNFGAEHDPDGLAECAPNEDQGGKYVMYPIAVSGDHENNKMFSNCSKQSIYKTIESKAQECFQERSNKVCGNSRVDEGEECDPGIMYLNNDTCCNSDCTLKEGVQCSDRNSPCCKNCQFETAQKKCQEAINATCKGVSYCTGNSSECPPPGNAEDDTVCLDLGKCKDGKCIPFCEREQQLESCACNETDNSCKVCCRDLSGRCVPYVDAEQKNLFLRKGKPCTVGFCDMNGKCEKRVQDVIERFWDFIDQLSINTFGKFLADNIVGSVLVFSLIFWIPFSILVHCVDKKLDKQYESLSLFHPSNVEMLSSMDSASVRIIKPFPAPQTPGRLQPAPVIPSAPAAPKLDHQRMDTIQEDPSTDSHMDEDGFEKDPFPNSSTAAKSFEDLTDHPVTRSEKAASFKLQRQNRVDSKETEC

Compound: COC(=O)C1CCCN1Cc1cccc(C(=O)NO)c1N(C)S(=O)(=O)c1ccc(OC)cc1 (stereo not drawn)
- IC50 [1]: 0.006 µM
- IC50 [2]: 0.517 µM
- IC50 [3]: 0.005 µM
- IC50 [4]: 0.2 µM

Compound: COc1ccc(S(=O)(=O)N(C)c2c(CN3CCN(C)CC3)cc(-c3ccc(OC(F)(F)F)cc3)cc2C(=O)NO)cc1
- IC50 [1]: 0.004 µM
- IC50 [2]: 0.745 µM
- IC50 [3]: 0.002 µM
- IC50 [4]: 0.21 µM

Compound: CCN(CC)Cc1cccc(C(=O)NO)c1N(C)S(=O)(=O)c1ccc(OC)cc1
- IC50 [1]: 0.084 µM
- IC50 [2]: 0.744 µM
- IC50 [3]: 0.008 µM

Compound: COc1ccc(S(=O)(=O)N(C)c2c(CN3CCN(C)CC3)cccc2C(=O)NO)cc1
- IC50 [3]: 0.001 µM

Compound: COc1ccc(S(=O)(=O)N(Cc2ccc(N3CCN(C)CC3)cc2)c2c(C)cccc2C(=O)NO)cc1
- IC50 [3]: 0.007 µM

Compound: COc1ccc(S(=O)(=O)N(CC#CCN2CCN(C)CC2)c2c(C)cc(Br)cc2C(=O)NO)cc1
- IC50 [1]: 0.006 µM
- IC50 [3]: 0.01 µM
- IC50 [4]: 0.026 µM

Compound: COc1ccc(S(=O)(=O)N(C)c2c(CN3CCN(c4ccccc4)CC3)cc(Br)cc2C(=O)NO)cc1
- IC50 [1]: 0.003 µM
- IC50 [2]: 0.444 µM
- IC50 [3]: 0.003 µM
- IC50 [4]: 0.087 µM

Compound: CN1CCN(Cc2cccc(C(=O)NO)c2N(C)S(=O)(=O)c2ccc(Oc3ccc(Cl)cc3)cc2)CC1
- IC50 [1]: 0.0008 µM
- IC50 [2]: 0.155 µM
- IC50 [3]: 0.001 µM
- IC50 [4]: 0.122 µM

Compound: COc1ccc(S(=O)(=O)N(Cc2ccc(CN(C)C)cc2)c2c(C)cccc2C(=O)NO)cc1
- IC50 [3]: 0.003 µM

Compound: COc1ccc(S(=O)(=O)N(Cc2ccc(OCCN3CCCCC3)cc2)c2c(C)cccc2C(=O)NO)cc1
- IC50 [3]: 0.007 µM

Compound: COc1ccc(S(=O)(=O)N(Cc2cccnc2)c2c(C)cccc2C(=O)NO)cc1
- IC50 [2]: 0.329 µM and 0.391 µM
- IC50 [4]: 0.356 µM and 0.645 µM

Compound: COc1ccc(S(=O)(=O)N(C)c2c(CN3CCN(C)CC3)cc(Br)cc2C(=O)NO)cc1
- IC50 [2]: 0.194 µM
- IC50 [3]: 0.002 µM

Compound: CN1CCN(Cc2cc(Br)cc(C(=O)NO)c2N(C)S(=O)(=O)c2ccc(Oc3ccc(Cl)cc3)cc2)CC1
- IC50 [5]: 0.082 µM
- IC50 [6]: 0.0007 µM
- IC50 [3]: 0.0005 µM
- IC50 [7]: 0.08 µM

Compound: COc1ccc(S(=O)(=O)N(Cc2ccc(OCCN3CCCCC3)cc2)c2c(C)cc(Br)cc2C(=O)NO)cc1
- IC50 [1]: 0.003 µM
- IC50 [3]: 0.002 µM

Compound: COc1ccc(S(=O)(=O)N(C)c2c(CN3CCN(C)CC3)cc(-c3ccc4ccccc4c3)cc2C(=O)NO)cc1
- IC50 [1]: 0.003 µM
- IC50 [2]: 0.343 µM
- IC50 [3]: 0.002 µM
- IC50 [4]: 0.049 µM

Compound: COc1ccc(S(=O)(=O)N(C)c2c(CN3CCN(C(=O)OC(C)(C)C)CC3)cc(Br)cc2C(=O)NO)cc1
- IC50 [1]: 0.006 µM
- IC50 [2]: 0.674 µM
- IC50 [3]: 0.007 µM
- IC50 [4]: 0.063 µM

Compound: CCN(CC)CC#CCN(c1c(C)cc(Br)cc1C(=O)NO)S(=O)(=O)c1ccc(OC)cc1
- IC50 [1]: 0.007 µM
- IC50 [2]: 0.15 µM
- IC50 [3]: 0.014 µM
- IC50 [4]: 0.036 µM

From ChEMBL document CHEMBL1133846, “The discovery of anthranilic acid-based MMP inhibitors. Part 3: incorporation of basic amines” (Bioorg Med Chem Lett, 2001)
